Results published in patent US7226625B2, “Identification of compositions, compositions, and methods of treatment of obesity and overweight conditions” (Phytomyco Research Corporation, priority 2003, dated 2007).

What was measured:
[1] = in vivo; cited from earlier work
adipocytes = assay: assays of this invention (lipolysis, adipocyte differentiation, de-differentiation); assay type: cell-based, mouse
Procedure: Assay 1. Lipolysis Assay.
In this assay, pre-adipocyte cells are seeded in 96-well plates and are induced to convert to adipocytes over the course of a 10–15 day treament with lipolytic reagents. After cells have converted to adipocytes, the cells are starved, and then subsequently treated with or exposed to test compounds or mixtures of compounds or extracts of plants or fractionated extracts of plants. The adipocytes are treated with test compounds in the presence of a surrounding cell medium. Over the course of 1 to 3 hours after exposure to the test compounds or mixture of compounds, the amount of glycerol present in the cell medium is measured. Glycerol and fatty acids are hydrolysis products of triglycerides, and glycerol is released from cells after enzymatic hydrolysis or breakdown of lipids.
Assay 2. […]
In this assay pre-adipocyte cells require 10 to 15 days to differentiate into adipocytes. […] After cells have undergone the 10–15 days required to differentiate, cells are assessed for GPDH activity. […]
This assay comprises a colorimetric assay to screen for compounds and mixtures of compounds that induce the differentiation of adipocytes to preadipocytes. The presence of such compounds is determined by measuring the relative levels of the enzyme GPDH. […] GPDH levels present in the cells are measured to determine if the cells still express the adipocyte phenotype. […]

3T3-L1 preadipocytes = assay: adipocyte differentiation blocking assay (GPDH level in cell lysates); assay type: cell-based, mouse; details: after 10-fold dilution (FIG. 6)
Text: The adipocyte differentiation blocking assay is an enzyme assay that examines the ability of compounds to block differentiation of preadipocytes to adipocytes by quantifying the level of GPDH in cell lysates (inhibition of adipogenesis). Based on preliminary results using this assay, we selected two plant extracts (designated as PM765, and as PM902, respectively) and collected eluant fractions isolated by HPLC, the extracts being divided into 40 or 120 fractions in collection wells (collected at 30 second or 1 minute HPLC eluant flow time intervals) (FIG. 3). […] MDI treatment is defined as Differentiation media causes the 3T3-L1 preadipocytes (fibroblast cells) to differentiate into adipocytes (fat cells). Differentiation media is composed of: • Per 100 ml of differentiation media • 90 mL DMEM media • 10 mL FCS • 1% pen/strep • 1 ml methylisobutylxanthine (stock 11.5 mg/mL) • 100 ul dexamethasone (stock 0.4 mg/mL) • 1 ml insulin (stock 1 mg/mL)
Inhibition of adipocyte differentiation is assayed by measuring the levels of the enzyme glycerol-3-phosphate dehydrogenase (GPDH). […]
In this assay pre-adipocyte cells require 10 to 15 days to differentiate into adipocytes. […] After cells have undergone the 10–15 days required to differentiate, cells are assessed for GPDH activity.
Results are expressed as a percentage of the untreated control average. […]

leptin = details: cited from earlier work
3T3-L1 cells = details: GPDH activity, oil red O staining; cited from earlier work

Row | Compound | decrease of the amount of fat absorbed from the diet [1] | activity in the assays of this invention (adipocytes) | blocking of adipocyte differentiation, as a percent of positive control (3T3-L1 preadipocytes) | effect on leptin levels (leptin) | differentiation of preadipocytes (3T3-L1 cells)
1 | CCCCCCCCCCC[C@@H](C[C@@H]1OC(=O)[C@H]1CCCCCC)OC(=O)[C@H](CC(C)C)NC=O [Orlistat] | about 30% |  |  |  | 
2 | C=C[C@](C)(O)CC[C@@H]1[C@@]2(C)CCCC(C)(C)[C@@H]2CC[C@@]1(C)O [sclareol, labdane-14-ene-8,13-diol] |  | active | blocking of adipocyte differentiation |  | 
3 | CC1(C)CCC[C@]2(C)[C@H]3CC(=O)O[C@]3(C)CC[C@@H]12 [sclareolide, 3aR-[3a-alpha, 5a-beta, 9a-alpha, 9b-alpha]-decahydro-3a,6,6,9a-tetramethylnaphtho[2,1-b]furane-2(1H)-one] |  | active | blocking of adipocyte differentiation |  | 
4 | myostatin: adipocyte blocking agent, inhibitor of skeletal muscle growth, member of the TGF-β superfamily |  |  |  | no effect | inhibits differentiation of preadipocytes
